Experimental findings from ChEMBL document CHEMBL1126105, “Dihydroxynitrobenzaldehydes and hydroxymethoxynitrobenzaldehydes: synthesis and biological activity as catechol-O-methyltransferase inhibitors” (J Med Chem, 1992) are described below.

Molecules are shown by their SMILES.

The target in experiment [1] is T1, Catechol O-methyltransferase (Sus scrofa) (UniProt Q99028).
T1 sequence (whole entry): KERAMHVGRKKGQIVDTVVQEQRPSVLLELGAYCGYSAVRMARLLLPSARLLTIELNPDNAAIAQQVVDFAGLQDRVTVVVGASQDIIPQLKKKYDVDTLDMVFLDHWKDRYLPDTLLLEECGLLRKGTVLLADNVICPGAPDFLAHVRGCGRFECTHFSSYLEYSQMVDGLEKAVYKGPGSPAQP
Description: (§1) Compound was evaluated for reversible inhibition of Catechol O-methyltransferase with saturating AdoMet and variable catechol as substrate (mixed inhibition)

Experiment [2] concerns the target T2, Catechol O-methyltransferase (Sus scrofa, UniProt Q99028).
T2 sequence (Q99028 whole entry): T1 sequence (whole entry)
Kind of experiment: In vitro inhibition of Catechol-O-methyltransferase (COMT) from isolated partially purified pig liver enzyme.

The target of experiment [3] is T1, Catechol O-methyltransferase (Sus scrofa). This is another data set of the same source.
Description: as §1
For experiment [4] the target is unchanged. The source holds these as a separate data set.
For experiment [5] the target is unchanged. Kind of experiment: Compound was evaluated for reversible inhibition of Catechol O-methyltransferase with variable AdoMet and saturating catechol as substrate (uncompetitive inhibition).
The target is the same in experiment [6]. The experiment can be described thus: Compound was evaluated for reversible inhibition of COMT with saturating AdoMet and variable catechol as substrate (mixed inhibition).
Experiment [7] deals with T2, Catechol O-methyltransferase. The experiment can be described thus: Compound was evaluated for reversible inhibition of Catechol O-methyltransferase with variable AdoMet and saturating catechol as substrate (uncompetitive inhibition).
For experiment [8] the target is unchanged. Kind of experiment: Compound was evaluated for reversible inhibition of Catechol O-methyltransferase with saturating AdoMet and variable catechol as substrate (Non-competitive inhibition).

As a reminder, the IC50 is the concentration that gives 50% inhibition. In experiment [1], `O=Cc1cc(O)c(O)c([N+](=O)[O-])c1` [3,4-DIHYDROXY-5-NITROBENZALDEHYDE] yielded a KIs of 0.816 µM. In experiment [2], this molecule yielded an IC50 of 2 µM. Further, the KII in experiment [3] came to 138 nM; in experiment [4], 1.38e-07 µM.
Consider `O=Cc1c([N+](=O)[O-])ccc(O)c1O`, for which the KIs in experiment [1] was 4.77 µM. For the same molecule, 10 µM corresponded to half-maximal inhibition in experiment [2] (IC50). In experiment [3], this molecule yielded a KII of 909 nM.
In turn, `O=Cc1cc(O)c(O)cc1[N+](=O)[O-]` registered a KIs in experiment [1] of 2.69 µM. In experiment [2], the IC50 amounted to 8.5 µM. Further, in experiment [3], the KII came out at 921 nM.
Regarding `O=Cc1ccc([N+](=O)[O-])c(O)c1O`, the KIs was found to be 538 nM in experiment [5] and 0.478 µM in experiment [1]. In addition, the midpoint of inhibition in experiment [2], the IC50, lay at 1.5 µM. In experiment [3], this molecule returned a KII of 145 nM.
With `O=Cc1cc([N+](=O)[O-])cc(O)c1O`, the KIs came to 7770 nM in experiment [5] and 1.2 µM in experiment [1]. Besides, the IC50 in experiment [2] worked out at 2.1 µM. This molecule also returned a KII in experiment [3] of 231 nM.
Take `O=Cc1ccc(O)c(O)c1[N+](=O)[O-]`: the KIs in experiment [5] was 678 nM; in experiment [1], 0.497 µM. In experiment [2], this molecule showed an IC50 of 1.5 µM. The molecule further yielded a KII in experiment [6] of 168 nM.
A word on the Ki: it is a measure of affinity in units of concentration, obtained from inhibition or displacement. A higher Ki goes with lower affinity. As to `COc1c(O)cc(C=O)cc1[N+](=O)[O-]`, the Ki stood at 13.5 µM in experiment [7] and 17.2 µM in experiment [8]. Also, half-maximal inhibition in experiment [2] (IC50) required 34 µM.
